Reference: patent US20070249582A1, “Method of Treating Substance Abuse with Quetiapine” (ASTRAZENECA AB, priority 2001, published 2007)

Tested on: outpatients with bipolar disorder and cocaine dependence
[1] = baseline to exit, all evaluable patients
[2] = baseline to week 12, LOCF, p<0.003

Q: `OCCOCCN1CCN(C2=Nc3ccccc3Sc3ccccc32)CC1` [Quetiapine, 11-(4-[2-(2-hydroxyethoxy)ethyl]-1-piperazinyl)dibenzo[b,f][1.4]-thiazepine] was tested. Which “Mean amount spent on drugs at baseline” value (8 completers, baseline, past week) did it give?
A: The value was 80.8±105.4 $.

Q: What about the “Mean amount spent on drugs at exit” value (8 completers, week 12, past week) of the same molecule?
A: The value was 10.0±17.7 $.

Q: And the “Reduction in amount spent on drugs” value (8 subjects who completed all 12 weeks, p=0.043)?
A: Its value is 87%.

Q: And the “Dollar amount spent on drugs” value [1]?
A: Its value is “did not decrease significantly”.

Q: And the “Percent of positive urine samples” value [1]?
A: The value was “did not decrease significantly”.

Q: What about the “Brief Psychiatric Rating Scale (BPRS) score” value [2] of the same molecule?
A: The value was “improved significantly”.

Q: What about the “Young Mania Rating Scale (YMRS) score” value [2] of the same molecule?
A: The value was “improved significantly”.

Q: What about the “Hamilton Depression Scale (HDRS) score” value (baseline to week 12, LOCF, p<0.003, mean maximum dose 312.5±95.6 mg/day) of the same molecule?
A: Its value is “improved significantly”.

Q: What about the “Cravings as measured by the cocaine craving questionnaire (CCQ)” value (baseline to week 12, p<0.05) of the same molecule?
A: The value was “significantly decreased”.

Q: And the Tolerability (in vivo)?
A: The Tolerability was “well tolerated”.

Q: And the “Withdrawals because of side effects” value (in vivo)?
A: Its value is “no subjects withdrawing because of side effects”.
